The target in assay [1] is T1, Sodium-dependent proline transporter (Homo sapiens) (UniProt Q99884).
T1 sequence (whole entry): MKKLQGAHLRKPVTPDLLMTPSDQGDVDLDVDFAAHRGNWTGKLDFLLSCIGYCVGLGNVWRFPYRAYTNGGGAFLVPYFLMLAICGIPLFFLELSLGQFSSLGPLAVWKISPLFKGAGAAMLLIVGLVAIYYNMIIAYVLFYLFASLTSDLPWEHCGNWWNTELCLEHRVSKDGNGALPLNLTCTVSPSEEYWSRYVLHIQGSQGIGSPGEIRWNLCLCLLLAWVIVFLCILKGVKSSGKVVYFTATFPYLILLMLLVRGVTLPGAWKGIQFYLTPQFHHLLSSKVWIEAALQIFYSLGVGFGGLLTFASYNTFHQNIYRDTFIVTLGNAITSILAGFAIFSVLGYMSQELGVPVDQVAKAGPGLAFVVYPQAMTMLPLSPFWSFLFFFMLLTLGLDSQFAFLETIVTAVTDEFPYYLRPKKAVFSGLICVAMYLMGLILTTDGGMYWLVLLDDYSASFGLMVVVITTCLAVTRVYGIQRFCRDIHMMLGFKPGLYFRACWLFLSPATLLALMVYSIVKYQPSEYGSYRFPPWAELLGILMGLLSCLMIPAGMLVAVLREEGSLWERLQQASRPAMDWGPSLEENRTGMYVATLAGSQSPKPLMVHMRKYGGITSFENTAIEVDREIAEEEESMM
Nature of the assay: Inhibition of human PROT at 0.1 uM relative to control.

Assay [2] concerns Bovine viral diarrhea virus 1. The assay is described as follows: Antiviral activity against Bovine viral diarrhea virus 1 infected in MDBK cells assessed as reduction in viral replication. It counts as functional, organism-based. To be noted: Bovine viral diarrhea virus isolates and strains.
Assay [3] has as its target Epidermal growth factor receptor (Homo sapiens, UniProt P00533). The assay is described as follows: Inhibition of EGFR (unknown origin).
Assay [4] has as its system HT-29. The assay is described as follows: cells. The settings on record: Homo sapiens, HT-29, 48 h.
Description: Anti-proliferative activity against human HT-29 assessed as inhibition of cell growth incubated for 48 hrs by MTT assay
The target in assay [5] is Vascular endothelial growth factor receptor 2 (Homo sapiens, UniProt P35968). Nature of the assay: Inhibition of VEGFR-2 (unknown origin).

SMILES strings stand for the structures.

Drawing on ChEMBL document CHEMBL5346867, “A close look into the biological and synthetic aspects of fused pyrazole derivatives” (Eur J Med Chem, 2022), this text covers inhibition, EC50 and IC50 for six compounds.

Vascular endothelial growth factor receptor 2, sequence (P35968 whole entry): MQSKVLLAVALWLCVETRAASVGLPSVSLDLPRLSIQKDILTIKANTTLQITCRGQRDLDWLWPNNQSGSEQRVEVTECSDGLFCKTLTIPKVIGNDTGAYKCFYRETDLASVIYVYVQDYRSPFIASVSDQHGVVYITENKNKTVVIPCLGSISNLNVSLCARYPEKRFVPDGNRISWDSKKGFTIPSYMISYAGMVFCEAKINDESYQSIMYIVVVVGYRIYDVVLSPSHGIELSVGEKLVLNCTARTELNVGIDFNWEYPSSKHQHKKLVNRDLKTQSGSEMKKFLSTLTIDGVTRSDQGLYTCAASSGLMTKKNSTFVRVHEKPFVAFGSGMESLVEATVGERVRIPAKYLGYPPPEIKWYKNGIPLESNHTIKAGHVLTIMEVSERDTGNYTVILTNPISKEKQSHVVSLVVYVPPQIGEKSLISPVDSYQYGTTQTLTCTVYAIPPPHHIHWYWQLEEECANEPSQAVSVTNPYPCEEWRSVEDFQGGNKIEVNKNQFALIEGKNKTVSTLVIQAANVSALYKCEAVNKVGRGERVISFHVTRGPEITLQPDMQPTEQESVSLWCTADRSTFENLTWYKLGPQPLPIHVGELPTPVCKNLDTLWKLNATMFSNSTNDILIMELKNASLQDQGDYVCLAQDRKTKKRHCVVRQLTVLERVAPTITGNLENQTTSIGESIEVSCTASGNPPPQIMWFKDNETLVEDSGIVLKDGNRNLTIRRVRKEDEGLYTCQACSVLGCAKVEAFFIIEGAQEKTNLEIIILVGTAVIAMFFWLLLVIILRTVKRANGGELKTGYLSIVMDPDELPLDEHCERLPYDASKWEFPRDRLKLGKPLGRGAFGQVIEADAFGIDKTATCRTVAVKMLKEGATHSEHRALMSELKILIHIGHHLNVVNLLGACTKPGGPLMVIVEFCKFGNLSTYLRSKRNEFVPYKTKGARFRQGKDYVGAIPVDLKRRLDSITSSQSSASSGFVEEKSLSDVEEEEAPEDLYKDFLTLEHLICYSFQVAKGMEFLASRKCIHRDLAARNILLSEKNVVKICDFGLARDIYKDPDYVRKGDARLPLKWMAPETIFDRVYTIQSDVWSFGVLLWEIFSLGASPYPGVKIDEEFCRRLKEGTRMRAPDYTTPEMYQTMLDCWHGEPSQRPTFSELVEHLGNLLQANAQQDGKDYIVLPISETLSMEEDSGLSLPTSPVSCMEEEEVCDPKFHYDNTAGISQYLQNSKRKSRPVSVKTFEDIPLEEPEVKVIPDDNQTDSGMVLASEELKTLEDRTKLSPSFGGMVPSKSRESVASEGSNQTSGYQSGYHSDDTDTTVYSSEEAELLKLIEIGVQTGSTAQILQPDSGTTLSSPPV
Epidermal growth factor receptor, sequence (P00533 whole entry): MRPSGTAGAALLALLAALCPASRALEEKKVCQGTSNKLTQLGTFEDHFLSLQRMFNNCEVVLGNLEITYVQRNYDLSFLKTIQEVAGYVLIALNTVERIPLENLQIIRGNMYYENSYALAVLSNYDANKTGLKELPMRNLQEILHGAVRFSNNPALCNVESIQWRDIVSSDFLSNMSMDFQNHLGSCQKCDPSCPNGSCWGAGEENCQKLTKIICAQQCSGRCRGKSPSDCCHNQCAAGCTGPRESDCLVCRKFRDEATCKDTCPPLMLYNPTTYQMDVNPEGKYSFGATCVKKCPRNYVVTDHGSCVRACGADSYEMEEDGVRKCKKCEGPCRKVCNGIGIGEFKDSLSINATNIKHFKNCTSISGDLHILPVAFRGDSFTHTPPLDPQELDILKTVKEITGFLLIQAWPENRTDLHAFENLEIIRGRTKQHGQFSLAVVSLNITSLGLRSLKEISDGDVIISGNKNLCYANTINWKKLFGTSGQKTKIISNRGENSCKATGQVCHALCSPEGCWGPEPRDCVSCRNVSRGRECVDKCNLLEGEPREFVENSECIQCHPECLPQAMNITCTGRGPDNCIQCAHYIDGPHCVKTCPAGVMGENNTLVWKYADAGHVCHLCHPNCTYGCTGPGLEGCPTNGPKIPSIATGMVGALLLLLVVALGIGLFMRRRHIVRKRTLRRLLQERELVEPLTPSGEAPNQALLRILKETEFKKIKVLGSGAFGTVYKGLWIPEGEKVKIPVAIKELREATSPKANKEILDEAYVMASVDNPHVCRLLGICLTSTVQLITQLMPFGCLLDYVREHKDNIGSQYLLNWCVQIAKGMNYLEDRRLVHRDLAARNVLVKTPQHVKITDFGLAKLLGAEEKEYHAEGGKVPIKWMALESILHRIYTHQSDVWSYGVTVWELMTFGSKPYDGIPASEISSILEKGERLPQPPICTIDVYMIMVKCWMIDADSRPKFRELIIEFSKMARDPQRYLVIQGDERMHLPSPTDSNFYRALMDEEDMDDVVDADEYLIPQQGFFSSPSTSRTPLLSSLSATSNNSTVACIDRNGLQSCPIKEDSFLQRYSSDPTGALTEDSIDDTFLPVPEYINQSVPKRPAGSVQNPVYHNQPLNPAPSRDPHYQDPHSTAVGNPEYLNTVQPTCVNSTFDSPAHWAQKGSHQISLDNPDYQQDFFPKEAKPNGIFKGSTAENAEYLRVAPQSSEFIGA

Usually inhibition stands for how much of the control response was suppressed. A low value points to little suppression. In assay [1], `CCCCC[C@H]1CCCN1C(=O)c1nn(C(C)(C)C)c2nc(NC(=O)c3ccc(C)cc3)sc12` returned an inhibition of 50%.

As usually defined, the EC50 is the concentration giving half of the maximal effect. In the case of `NC(=O)c1ncn([C@@H]2O[C@H](CO)[C@@H](O)[C@H]2O)n1` [RIBAVIRIN], in assay [2], the EC50 came to 1300 nM.

By IC50 is commonly meant the concentration that inhibits the measured activity by half. Read a low IC50 as inhibition by little substance. With `CC1=NNC2Oc3ncn(N)c(=N)c3C(c3ccccc3Br)C12` (stereo unspecified), the IC50 in assay [3] was 60 nM.

`COc1cc(/C=N/NC(=O)COc2nc(C)nc3c2c(C)nn3-c2ccccc2)cc(OC)c1OC` gave a half-maximal inhibitory concentration (IC50) in assay [4] of 5360 nM.

As for `Cc1nn(-c2ccc(Cl)cc2)c2c1C(=O)N(c1ccccc1)C2`, the EC50 in assay [2] worked out at 120 nM.

Turning to `CC1=NNC2OC(NS(=O)(=O)c3ccc(C)cc3)=C(C#N)C(c3ccccc3Br)C12` (stereo unspecified), half-maximal inhibition in assay [5] (IC50) required 220 nM.
